Results: publication PMC6973011, “Stafia‐1: a STAT5a‐Selective Inhibitor Developed via Docking‐Based Screening of in Silico O‐Phosphorylated Fragments” (Chemistry (Weinheim an Der Bergstrasse, Germany), 2019)
Residue numbers refer to the chain shown, from its start.

How the values were obtained:
[1] = molecular target: T1, STAT5b (Homo sapiens, UniProt P51692); experiment: Fluorescence polarization competitive binding assay, STAT5b; conditions: read-out: STAT5b inhibition at 200 μM
T1 construct: made in house
T1 sequence (P51692 1-787): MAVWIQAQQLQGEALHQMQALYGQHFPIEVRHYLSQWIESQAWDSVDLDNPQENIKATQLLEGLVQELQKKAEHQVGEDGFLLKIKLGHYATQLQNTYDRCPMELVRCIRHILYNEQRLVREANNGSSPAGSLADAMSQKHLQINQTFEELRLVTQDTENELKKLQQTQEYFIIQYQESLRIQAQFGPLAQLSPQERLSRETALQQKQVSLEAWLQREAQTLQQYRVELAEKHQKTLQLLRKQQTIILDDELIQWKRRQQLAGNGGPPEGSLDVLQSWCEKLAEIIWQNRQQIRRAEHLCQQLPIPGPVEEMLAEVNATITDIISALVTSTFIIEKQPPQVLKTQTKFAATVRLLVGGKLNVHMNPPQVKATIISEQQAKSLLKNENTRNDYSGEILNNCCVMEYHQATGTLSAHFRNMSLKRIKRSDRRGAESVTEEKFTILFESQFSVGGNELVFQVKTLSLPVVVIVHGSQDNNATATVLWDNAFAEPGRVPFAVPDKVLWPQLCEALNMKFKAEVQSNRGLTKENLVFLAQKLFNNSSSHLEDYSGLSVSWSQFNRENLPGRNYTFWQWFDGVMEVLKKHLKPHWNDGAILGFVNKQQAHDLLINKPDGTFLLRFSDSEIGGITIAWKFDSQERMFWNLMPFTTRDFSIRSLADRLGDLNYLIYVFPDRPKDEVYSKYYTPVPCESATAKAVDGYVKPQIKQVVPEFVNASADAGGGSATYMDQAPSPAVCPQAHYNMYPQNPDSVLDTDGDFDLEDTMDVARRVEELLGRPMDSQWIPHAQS

[2] = molecular target: T2, STAT5a (Homo sapiens, UniProt P42229); experiment: Fluorescence polarization competitive binding assay, STAT5a
T2 construct: made in house
T2 sequence (P42229 1-794): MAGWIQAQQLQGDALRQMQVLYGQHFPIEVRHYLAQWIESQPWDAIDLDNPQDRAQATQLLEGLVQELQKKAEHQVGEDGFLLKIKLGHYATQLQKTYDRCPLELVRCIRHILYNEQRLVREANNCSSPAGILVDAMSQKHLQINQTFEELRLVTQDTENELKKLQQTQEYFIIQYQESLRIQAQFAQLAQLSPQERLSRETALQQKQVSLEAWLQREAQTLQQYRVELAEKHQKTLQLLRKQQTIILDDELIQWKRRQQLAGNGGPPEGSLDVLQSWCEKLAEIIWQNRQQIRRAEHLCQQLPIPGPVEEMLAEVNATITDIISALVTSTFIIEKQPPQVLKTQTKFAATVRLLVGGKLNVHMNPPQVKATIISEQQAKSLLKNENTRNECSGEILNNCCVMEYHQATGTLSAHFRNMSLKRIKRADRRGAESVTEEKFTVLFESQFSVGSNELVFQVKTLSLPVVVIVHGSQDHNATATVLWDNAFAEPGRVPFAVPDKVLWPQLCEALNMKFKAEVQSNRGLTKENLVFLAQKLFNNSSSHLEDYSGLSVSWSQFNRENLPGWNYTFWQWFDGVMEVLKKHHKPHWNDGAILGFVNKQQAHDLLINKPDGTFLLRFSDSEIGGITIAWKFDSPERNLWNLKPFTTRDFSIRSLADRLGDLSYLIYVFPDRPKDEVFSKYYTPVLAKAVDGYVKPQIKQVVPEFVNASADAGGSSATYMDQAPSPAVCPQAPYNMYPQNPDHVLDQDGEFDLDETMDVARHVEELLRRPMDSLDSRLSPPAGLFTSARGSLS

[3] = molecular target: STAT3 (Homo sapiens, UniProt P40763); experiment: Fluorescence polarization competitive binding assay, STAT3 SH2 domain; conditions: read-out: STAT3 inhibition at 200 μM
STAT3, sequence (P40763 whole entry, species assumed, the tested form may be a part): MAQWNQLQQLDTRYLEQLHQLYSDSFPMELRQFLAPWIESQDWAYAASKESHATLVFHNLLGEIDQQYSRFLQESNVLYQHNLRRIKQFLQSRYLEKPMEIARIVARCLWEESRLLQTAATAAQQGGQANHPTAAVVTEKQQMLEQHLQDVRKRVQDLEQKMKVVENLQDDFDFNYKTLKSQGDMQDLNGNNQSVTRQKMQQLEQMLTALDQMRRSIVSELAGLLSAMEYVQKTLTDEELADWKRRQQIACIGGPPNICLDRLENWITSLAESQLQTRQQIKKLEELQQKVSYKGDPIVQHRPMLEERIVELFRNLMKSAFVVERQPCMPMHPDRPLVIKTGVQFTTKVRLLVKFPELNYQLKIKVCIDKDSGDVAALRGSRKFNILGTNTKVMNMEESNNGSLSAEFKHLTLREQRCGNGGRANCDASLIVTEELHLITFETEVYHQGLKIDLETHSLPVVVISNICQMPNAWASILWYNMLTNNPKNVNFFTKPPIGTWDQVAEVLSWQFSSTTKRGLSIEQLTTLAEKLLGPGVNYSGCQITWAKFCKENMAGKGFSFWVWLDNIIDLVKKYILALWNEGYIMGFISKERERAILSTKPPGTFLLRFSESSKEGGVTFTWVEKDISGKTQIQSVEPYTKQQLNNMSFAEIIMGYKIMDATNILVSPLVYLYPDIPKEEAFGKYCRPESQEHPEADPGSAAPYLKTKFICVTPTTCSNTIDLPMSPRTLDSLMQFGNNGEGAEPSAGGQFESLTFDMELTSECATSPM
Text: Expression and purification of STAT1, STAT3, STAT4, STAT5a, STAT5b, STAT5a Trp566Arg, STAT5b Arg566Trp, STAT5b 6M, STAT5b 7M, STAT6, and Lck have previously been described.[4, 12] STAT proteins were purified over a single His-Bind resin (Millipore) column.
Wild-type and mutant STAT5a/b proteins used for activity analysis of 20 were purified over two successive His-Bind resin columns.[4, 13]
Fluorescence Polarization assays
Competitive binding assays based on fluorescence polarization were essentially carried out as described.[14] Unless stated otherwise, the following final concentration of proteins were used:
STAT4; 105 nM for STAT6; 30 nM for Lck. Final concentration of all peptides: 10 nM. Peptides used: 5-carboxyfluorescein-GpYLVLDKW for STAT5a/b and point mutants thereof; 5-carboxyfluorescein-GpYLPQTV-NH2 for STAT3; 5-carboxyfluorescein-GpYDKPHVL for STAT1; 5-carboxyfluorescein-GpYLPQNID-OH for STAT4; 5-carboxyfluorescein-
analysis of 20 against wild-type (wt) STAT5a/b and STAT5a/b point mutants, the following concentrations of double-purified protein were used, which reflect the approximate Kd values of the interactions with 5-carboxyfluorescein-GpYLVLDKW: STAT5a wt: 147 nM; STAT5b wt:
STAT5b 6M: 80 nM; STAT5b 7M: 282 nM. Assay buffer: 10 mM Tris (pH 8.0), 50 mM NaCl, 1 mM EDTA, 1 mM DTT, 0.1 % Nonidet P-40 substitute, and 2 % DMSO in water. A major part of the pipetting was done using a Biomek FXp sceening robot (Beckman-Coulter). Protein and test compounds were incubated for 1 h, followed by addition of the fluorescein-labeled peptide.
Fluorescence polarization was measured after another hour using an Infinite F500 plate reader (Tecan). IC50 values were converted to Ki-values using the published equation.[15]

[4] = molecular target: T3, STAT5b Arg566Trp/Gln636Pro/Met639Asn/Phe640Leu/Met644Lys/Asn664Ser/Tyr679Phe (STAT5b‐7M) (Homo sapiens, UniProt P51692, F640L/M639N/M644K/N664S/Q636P/R566W/Y679F); experiment: Fluorescence polarization assay, mutant STAT5b-7M; type: binding; conditions: FP assay
T3 construct: made in house
T3 sequence (P51692 1-787 R566W/Q636P/M639N/F640L/M644K/N664S/Y679F): T1 sequence (P51692 1-787) with R566W, Q636P, M639N, F640L, M644K, N664S, Y679F

## COc1cc(-c2cc(OP(=O)(O)O)cc(-c3cc(OC)c(OC)c(OC)c3)c2)cc(OC)c1OC [Compound 20]
[1]
  inhibition at 200 µM: 37 ± 5%
[2]
  IC50: 22.2 ± 3.6 µM
  Ki: 10.9 ± 1.8 µM
[2]; FP assays, STAT5a vs STAT5b
  selectivity for STAT5a over STAT5b: at least 9 fold
[3]
  inhibition at 200 µM: 27 ± 2%
[4]
  IC50: 42.6 ± 8.8 µM
  Ki: 21.1 ± 4.4 µM
